These results are taken from patent US5190873A, “Hybrid tryptophan aporepressor containing ligand binding sites” (California Institute of Biological Research, priority 1991, dated 1993).

Where no end group is shown, it is not given here.

This assay concerns U251MG human glioma cell attachment to TrpR-TN5 (E. coli Trp aporepressor hybrid with SRRGDMS at D/E transition). Briefly: Cell attachment assay on TrpR-TN5-coated wells, peptide competition. The settings on record: peptide at 1 mg/ml; U251 cells. The format is cell-based. Here is the method: Recombinant proteins were assessed for cell binding activity in a microtiter plate cell attachment assay. The assay is a simple and rapid means of assessing cell binding to the recombinant protein. In addition the specificity of the interaction is explored with specific inhibitor peptides, recombinant proteins and matrix proteins. Finally, the assay is used to screen a variety of cell lines to determine the range of cell types capable of interacting with the recombinant protein.
The assay used was a modification of one widely used in the field. See Bourdon et al., J. Cell Biol., 108:1149-1155 (1989). […] Nonspecific sites on the well were blocked with BSA. Human tumor cells, U251MG-human glioma or MG63-human sarcoma having the receptor which binds the SRRGDMS receptor binding site with or without inhibitor were added and allowed to adhere for 30 to 90 minutes at 37° C. Following the maintenance period, non-adherent cells were washed out and relative numbers of adherent cells were determined. The assay can detect binding interactions in the absence of extensive cell spreading.
In the cell attachment assay, the attached cells stained with Di-I a vital fluorescent dye which intercalates in cell membranes. The advantages of this form of cell tagging are that cells can be rapidly labeled, the label remains cell bound, it is not radioactive, and it is easily detected in a fluorescence plate reader.
Specificity of cell attachment was then determined in competition assays of cell attachment using SRRGDMS or GRGDSP peptides as competitive inhibitors of recombinant protein cell attachment. In the presence of 1 mg/ml SRRGDMS peptide, the specific attachment of U251MG cells to either fusion protein was inhibited as shown in FIG. 3.
As for GRGDSP (GRGDSP-NH2), the “inhibition of cell attachment to TrpR-TN5” value is “inhibited”. To MGSRSRD belongs “did not inhibit”; to SRRGDMS (SRRGDMS-NH2), “inhibited”.
